Measurements taken from US8246942B2, “Microbicidal compositions” (LANXESS Deutschland GmbH, priority 2000, dated 2012).
Read-outs that look alike come from different tables or passages of the source.

Tested on: Pseudomonas fluorescens
Assay: Determination of the minimum inhibitory concentration (MIC) against Pseudomonas fluorescens
Format: cell-based
Conditions: for MIC: Pseudomonas fluorescens, read-out: MIC value against Pseudomonas fluorescens
Text: The observed synergism of the active compound mixtures, claimed in the present application, consisting of o-phenylphenol (OPP) and other bactericides can be determined by the following mathematical equation (see F. C. Kull, P. C. Elisman, H. D. Sylwestrowicz and P. K. Mayer, Appl. Microbiol. 9, 538 (1960):
[formula] where • Qa=the amount of component A in the active compound mixture which achieves the desired effect, i.e. no microbial growth. • QA=the amount of component A which, when used on its own, suppresses the growth of the microorganisms. • Qb=the amount of component B in the active compound mixture which suppresses the growth of the microorganisms. • Qb=the amount of component B which, when used on its own, suppresses the growth of the microorganisms.
A synergistic index of <1 indicates a synergistic effect for the active compound mixture.
Determination of the Minimum Inhibitory Concentration (MIC) of Compositions According to the Invention Against Pseudomonas fluerescens

[1] = Example 2, OPP/Tektamer 38, weight ratios

N#CCCC(Br)(C#N)CBr (stereo not drawn) [Tektamer 38, 1,2-dibromo-2,4-dicyanobutane]
MIC [1]: 100 µg/mL

Oc1ccccc1-c1ccccc1 [OPP, o-phenylphenol]
MIC value against Pseudomonas fluorescens [1]: 500 µg/mL | MIC value against Pseudomonas fluorescens (Example 3, OPP/MIT, weight ratios): 500 µg/mL | MIC: 500 µg/mL

Cn1sccc1=O [MIT, 2-methyl-2H-isothiazol-3-one]
MIC: 30 µg/mL

O=[N+]([O-])C(Br)(CO)CO [BNPD, 2-bromo-2-nitro-1,3-propanediol]
MIC (Example 1, OPP/BNPD (bronopol), weight ratios): 35 µg/mL
